In the test the target is T1, PYL4 and HAB1 (Arabidopsis thaliana, UniProt O80920).
T1 construct: vector pHB3; made in house
T1 sequence (O80920 1-207): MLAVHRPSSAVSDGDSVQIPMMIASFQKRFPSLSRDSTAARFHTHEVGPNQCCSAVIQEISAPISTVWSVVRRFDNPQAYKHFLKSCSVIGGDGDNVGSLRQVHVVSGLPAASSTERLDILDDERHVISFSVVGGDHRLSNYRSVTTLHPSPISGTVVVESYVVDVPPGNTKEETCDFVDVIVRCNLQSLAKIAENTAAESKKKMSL
T1 sequence (Q9CAJ0 23-511 partner): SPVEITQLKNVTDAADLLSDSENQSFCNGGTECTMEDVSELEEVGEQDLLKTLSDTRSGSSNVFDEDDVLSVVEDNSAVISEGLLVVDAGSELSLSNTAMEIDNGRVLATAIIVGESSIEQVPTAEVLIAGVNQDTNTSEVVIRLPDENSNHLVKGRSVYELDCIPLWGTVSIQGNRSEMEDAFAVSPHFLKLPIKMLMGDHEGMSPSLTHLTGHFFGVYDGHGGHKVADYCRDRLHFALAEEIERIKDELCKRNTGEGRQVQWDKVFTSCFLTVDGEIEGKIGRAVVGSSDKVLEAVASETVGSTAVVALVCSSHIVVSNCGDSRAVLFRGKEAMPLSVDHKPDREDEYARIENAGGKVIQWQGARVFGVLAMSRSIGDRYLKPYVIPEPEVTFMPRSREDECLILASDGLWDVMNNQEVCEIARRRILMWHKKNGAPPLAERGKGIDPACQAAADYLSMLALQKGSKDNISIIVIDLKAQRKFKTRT
The experiment in a line: In vitro pull down assay of refolded PYL4 with HAB1. The class given is binding. On the procedure: To explore the functional implications of the PYR1-PP2C interaction, we examined if an ABA response could be reconstituted in vitro. Recombinant GST-HAB1, GST-ABI1 and GST-ABI2 were expressed in E. coli and tested for ligand-dependent interactions with 6×His-PYR1 in pull-down assays. Purified 6×His-PYR1 and GST-HAB1 (20 and 100 μg respectively, 8 μM PYR1 final concentration), were combined in 100 μl TBS containing 10 μM (+)-ABA or 1% DMSO for negative control. The reaction was incubated for 90 minutes at RT and 5 μl of PrepEase (USB) His-tagged protein purification resin was added. The resin and reaction mixture was incubated 30 min at RT with gentle shaking at 5 min intervals. The resin was washed five times with TBS containing 10 μM (+)-ABA. After the final wash, the bound protein was eluted in 20 μl SDS-PAGE buffer, boiled for 5 minutes and centrifuged. 5 μl of eluate was analyzed on SDS-PAGE. For pull-downs with ABI1 and ABI2, crude lysates were used in a similar method, except purified PP2C was replaced with cleared E. coli lysates. The amount of lysate added was determined by SDS-page analysis to yield ˜100 μg PP2C, such that the same stoichiometry was used as in assays using purified proteins.
A PYL4 6×His-tagged (SEQ ID NO:141) protein was constructed using a public pUni clone. This was recombined into the His-tagged expression vector pHB3. […]

With `CC1=CC(=O)CC(C)(C)[C@@]1(O)/C=C/C(C)=C\C(=O)O` [ABA, Abscisic acid], the “PYL4 binding to HAB1 in pull down” value is listed as “binds HAB1 in response to ABA”.
